Laboratory results reported in ChEMBL document CHEMBL1129171, “BMS-187257, a potent, selective, and novel heterocyclic 3 adrenergic receptor agonist” (Bioorg Med Chem Lett, 1996).
Activity calls are given as the source filed them. The calls are words filed in the database; no cut-off is given here.

How the values were obtained:
[1] = biological target: T1, Beta-3 adrenergic receptor (Homo sapiens, UniProt P13945); assay: stimulation of adenylyl cyclase activity in CHO-beta-3 adrenergic receptor cell membrane; expressed as maximal cyclase activity as a fraction of (-)-isoproterenol (IA = 1).; format: functional
Target sequence in this assay (P13945 whole entry, looked up): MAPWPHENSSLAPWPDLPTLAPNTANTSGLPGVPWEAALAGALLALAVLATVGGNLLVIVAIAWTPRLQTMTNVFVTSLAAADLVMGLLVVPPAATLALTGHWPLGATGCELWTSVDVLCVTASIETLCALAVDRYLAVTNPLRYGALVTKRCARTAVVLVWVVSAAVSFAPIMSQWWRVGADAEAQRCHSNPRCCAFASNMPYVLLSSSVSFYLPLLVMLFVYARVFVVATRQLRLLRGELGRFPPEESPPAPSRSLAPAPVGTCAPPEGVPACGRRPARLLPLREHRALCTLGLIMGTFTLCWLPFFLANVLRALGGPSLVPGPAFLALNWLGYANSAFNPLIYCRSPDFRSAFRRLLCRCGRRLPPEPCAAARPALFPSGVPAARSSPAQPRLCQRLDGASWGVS

[2] = biological target: T1, Beta-3 adrenergic receptor; assay: Compound was tested for its ability to stimulate adenylyl cyclase activity in CHO-beta-3 adrenergic receptor cell membrane.; format: functional
Target sequence in this assay (P13945 whole entry): as the sequence (P13945 whole entry, looked up) above

[3] = biological target: T1, Beta-3 adrenergic receptor; assay: Compound was tested for its binding affinity against beta3 adrenergic receptor in CHO cell membrane using [125I]iodocyanopindolol as the radioligand.; format: cell membranes
Target sequence in this assay (P13945 whole entry): as the sequence (P13945 whole entry, looked up) above

[4] = biological target: T1, Beta-3 adrenergic receptor; assay: Compound was tested for its ability to stimulate adenylyl cyclase activity in CHO Beta-3 adrenergic receptor cell membrane.; format: functional
Target sequence in this assay (P13945 whole entry): as the sequence (P13945 whole entry, looked up) above

[5] = biological target: Beta-2 adrenergic receptor (Homo sapiens, UniProt P07550); assay: biochemical
Chain of Beta-2 adrenergic receptor (P07550 whole entry): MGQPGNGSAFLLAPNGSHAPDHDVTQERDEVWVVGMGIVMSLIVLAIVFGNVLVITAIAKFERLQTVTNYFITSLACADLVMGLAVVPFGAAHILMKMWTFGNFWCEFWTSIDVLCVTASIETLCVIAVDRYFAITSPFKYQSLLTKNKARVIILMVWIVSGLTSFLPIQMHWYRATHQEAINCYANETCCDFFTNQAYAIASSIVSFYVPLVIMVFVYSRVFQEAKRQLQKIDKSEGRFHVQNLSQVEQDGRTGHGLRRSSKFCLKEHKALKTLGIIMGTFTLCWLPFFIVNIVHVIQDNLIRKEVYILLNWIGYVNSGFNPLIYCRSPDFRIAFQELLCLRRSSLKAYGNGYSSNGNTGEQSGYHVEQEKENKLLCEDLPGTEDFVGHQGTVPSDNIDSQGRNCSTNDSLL
Description: Compound was tested for its binding affinity against beta2 adrenergic receptor in CHO cell membrane using [125I]iodocyanopindolol as the radioligand.

[6] = biological target: Beta-1 adrenergic receptor (Homo sapiens, UniProt P08588); assay: Compound was tested for its binding affinity against Beta-1 adrenergic receptor in CHO cell membrane using [125I]iodocyanopindolol as the radioligand.; format: cell membranes
Chain of Beta-1 adrenergic receptor (P08588 whole entry): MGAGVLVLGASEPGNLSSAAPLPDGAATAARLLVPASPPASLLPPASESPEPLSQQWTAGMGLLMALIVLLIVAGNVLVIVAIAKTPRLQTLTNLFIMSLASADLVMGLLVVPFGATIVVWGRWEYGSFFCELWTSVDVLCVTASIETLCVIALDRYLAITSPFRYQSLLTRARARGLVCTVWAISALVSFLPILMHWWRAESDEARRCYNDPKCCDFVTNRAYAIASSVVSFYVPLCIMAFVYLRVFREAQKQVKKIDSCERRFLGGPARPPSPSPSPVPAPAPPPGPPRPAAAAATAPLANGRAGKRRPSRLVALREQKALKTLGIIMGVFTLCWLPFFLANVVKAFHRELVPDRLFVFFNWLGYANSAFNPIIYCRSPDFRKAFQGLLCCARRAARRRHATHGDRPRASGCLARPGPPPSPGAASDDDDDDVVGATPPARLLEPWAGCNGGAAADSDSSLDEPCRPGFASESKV

| Compound | IA [1] | EC50 [2] [µM] | Ki [3] [µM] | EC50 [4] [µM] | Ki [5] [µM] | Ki [6] [µM] |
| --- | --- | --- | --- | --- | --- | --- |
| O=C(O)COc1ccc(OCCNC[C@H](O)COc2ccccc2)cc1 | 0.71 | 0.55 | 0.52 | – | – | – |
| C[C@H](Cc1ncc(CCC(=O)O)s1)NC[C@H](O)COc1ccccc1 | 0.56 | – | 3.53 | 2.76 | 1.23 | 3.44 |
| C[C@H](Cc1ncc(CCCC(=O)O)s1)NC[C@H](O)COc1ccccc1 | 0.72 | – | 0.76 | 0.63 | 1.6 | 1.3 |
| C[C@H](Cc1ccc(OCC(=O)O)cc1)NC[C@H](O)c1cccc(Cl)c1 | 0.67 | – | – | – | – | – |
| C[C@H](Cc1ncc(CCCC(=O)O)s1)NCC(O)c1cccc(Cl)c1 (stereo partly specified) | – | – | 36.5 | – | 13.9 | 6.4 |
| C[C@H](Cc1ncc(CCC(=O)O)s1)NCC(O)c1cccc(Cl)c1 (stereo partly specified) | 0.39 | – | 146 | 27.6 | 11.4 | 58.1 |
| C[C@H](Cc1ncc(CCCCC(=O)O)s1)NC[C@H](O)COc1ccccc1 | inactive | – | 0.39 | – | 0.15 | 0.44 |
